{"source": "ChEMBL document CHEMBL4190378", "about": "“Synthesis and evaluation of new 2-chloro-4-aminopyrimidine and 2,6-dimethyl-4-aminopyrimidine derivatives as tubulin polymerization inhibitors” (Bioorg Med Chem Lett, 2018)", "key": {"[1]": {"system": "A549", "experiment": "Antiproliferative activity against human A549 cells incubated for 48 hrs by MTT assay", "type": "functional, cell-based", "conditions": "A549, 48 h"}, "[2]": {"system": "MDA-MB-231", "experiment": "Antiproliferative activity against human MDA-MB-231 cells incubated for 48 hrs by MTT assay", "type": "functional, cell-based", "conditions": "MDA-MB-231, 48 h"}, "[3]": {"experiment": "Inhibition of porcine brain tubulin polymerization measured every 60 secs for 90 mins by DAPI dye based fluorescence assay", "design": "species or system Sus scrofa"}, "[4]": {"system": "HeLa", "experiment": "Induction of cell cycle arrest in human HeLa cells assessed as tetraploid peaks level at 50 nM incubated for 24 hrs by propidium iodide staining based flow cytometry", "type": "functional"}, "[5]": {"system": "HeLa", "experiment": "Induction of cell cycle arrest in human HeLa cells assessed as accumulation at G2/M phase at 100 nM incubated for 24 hrs by propidium iodide staining based flow cytometry", "type": "functional"}, "[6]": {"system": "HeLa", "experiment": "Induction of cell cycle arrest in human HeLa cells assessed as accumulation at G2/M phase at 500 nM incubated for 24 hrs by propidium iodide staining based flow cytometry", "type": "functional"}, "[7]": {"system": "HeLa", "experiment": "Induction of cell cycle arrest in human HeLa cells assessed as tetraploid peaks level at 50 nM incubated for 48 hrs by propidium iodide staining based flow cytometry", "type": "functional"}, "[8]": {"system": "HeLa", "experiment": "Induction of cell cycle arrest in human HeLa cells assessed as induction of disappearance of G2/M phase at 100 nM incubated for 48 hrs by propidium iodide staining based flow cytometry", "type": "functional"}, "[9]": {"system": "HeLa", "experiment": "Induction of cell cycle arrest in human HeLa cells assessed as accumulation at subG1 phase at 100 nM incubated for 24 hrs by propidium iodide staining based flow cytometry", "type": "functional"}, "[10]": {"system": "HeLa", "experiment": "Induction of cell cycle arrest in human HeLa cells assessed as accumulation at subG1 phase at 500 nM incubated for 24 hrs by propidium iodide staining based flow cytometry", "type": "functional"}, "[11]": {"system": "HeLa", "experiment": "Inhibition of tubulin polymerization in human HeLa cells assessed as morphological changes by measuring microtubule organisation derangement at 0.05 uM incubated for 24 hrs by laser scanning confocal microscopy", "type": "functional, cell-based"}, "[12]": {"system": "HeLa", "experiment": "Inhibition of tubulin polymerization in human HeLa cells assessed as morphological changes by measuring narrowing of nucleus at 0.5 uM incubated for 24 hrs by laser scanning confocal microscopy", "type": "functional, cell-based"}, "[13]": {"system": "HeLa", "experiment": "Induction of apoptosis in human HeLa cells assessed as early apoptotic cells level at 50 nM incubated for 48 hrs by Annexin-V/FITC and propidium iodide staining based flow cytometry (reference value: 0.16%)", "type": "functional"}, "[14]": {"system": "HeLa", "experiment": "Induction of apoptosis in human HeLa cells assessed as late apoptotic cells level at 50 nM incubated for 48 hrs by Annexin-V/FITC and propidium iodide staining based flow cytometry (reference value: 0.02%)", "type": "functional"}, "[15]": {"system": "HeLa", "experiment": "Induction of apoptosis in human HeLa cells assessed as early apoptotic cells level at 100 nM incubated for 48 hrs by Annexin-V/FITC and propidium iodide staining based flow cytometry (reference value: 0.16%)", "type": "functional"}, "[16]": {"system": "HeLa", "experiment": "Induction of apoptosis in human HeLa cells assessed as necrotic cells level at 100 nM incubated for 48 hrs by Annexin-V/FITC and propidium iodide staining based flow cytometry (reference value: 0.03%)", "type": "functional"}, "[17]": {"system": "HeLa", "experiment": "Induction of apoptosis in human HeLa cells assessed as viable cells level at 500 nM incubated for 48 hrs by Annexin-V/FITC and propidium iodide staining based flow cytometry (reference value: 99.72%)", "type": "functional"}, "[18]": {"system": "HeLa", "experiment": "Induction of apoptosis in human HeLa cells assessed as late apoptotic cells level at 500 nM incubated for 48 hrs by Annexin-V/FITC and propidium iodide staining based flow cytometry (reference value: 0.02%)", "type": "functional"}, "[19]": {"system": "HeLa", "experiment": "Induction of apoptosis in human HeLa cells assessed as necrotic cells level at 500 nM incubated for 48 hrs by Annexin-V/FITC and propidium iodide staining based flow cytometry (reference value: 0.03%)", "type": "functional"}, "[20]": {"system": "HeLa", "experiment": "Induction of apoptosis in human HeLa cells assessed as viable cells level at 50 nM incubated for 72 hrs by Annexin-V/FITC and propidium iodide staining based flow cytometry (reference value: 99.72%)", "type": "functional"}, "[21]": {"system": "HeLa", "experiment": "Induction of apoptosis in human HeLa cells assessed as late apoptotic cells level at 50 nM incubated for 72 hrs by Annexin-V/FITC and propidium iodide staining based flow cytometry (reference value: 0.02%)", "type": "functional"}, "[22]": {"system": "HeLa", "experiment": "Induction of apoptosis in human HeLa cells assessed as necrotic cells level at 50 nM incubated for 72 hrs by Annexin-V/FITC and propidium iodide staining based flow cytometry (reference value: 0.03%)", "type": "functional"}, "[23]": {"system": "HeLa", "experiment": "Induction of apoptosis in human HeLa cells assessed as viable cells level at 100 nM incubated for 72 hrs by Annexin-V/FITC and propidium iodide staining based flow cytometry (reference value: 99.72%)", "type": "functional"}, "[24]": {"system": "HeLa", "experiment": "Induction of apoptosis in human HeLa cells assessed as early apoptotic cells level at 100 nM incubated for 72 hrs by Annexin-V/FITC and propidium iodide staining based flow cytometry (reference value: 0.16%)", "type": "functional"}, "[25]": {"system": "HeLa", "experiment": "Induction of apoptosis in human HeLa cells assessed as late apoptotic cells level at 100 nM incubated for 72 hrs by Annexin-V/FITC and propidium iodide staining based flow cytometry (reference value: 0.02%)", "type": "functional"}, "[26]": {"system": "HeLa", "experiment": "Induction of apoptosis in human HeLa cells assessed as necrotic cells level at 100 nM incubated for 72 hrs by Annexin-V/FITC and propidium iodide staining based flow cytometry (reference value: 0.03%)", "type": "functional"}, "[27]": {"system": "HeLa", "experiment": "Induction of apoptosis in human HeLa cells assessed as late apoptotic cells level at 500 nM incubated for 72 hrs by Annexin-V/FITC and propidium iodide staining based flow cytometry (reference value: 0.02%)", "type": "functional"}, "[28]": {"system": "HeLa", "experiment": "Induction of mitochondrial transmembrane potential loss in human HeLa cells assessed as JC1 dye monomers level at 50 nM incubated for 24 hrs by JC1 staining based flow cytometry (reference value: 4.12%)", "type": "functional"}, "[29]": {"system": "HeLa", "experiment": "Induction of mitochondrial transmembrane potential loss in human HeLa cells assessed as JC1 dye aggregates level at 100 nM incubated for 24 hrs by JC1 staining based flow cytometry (reference value: 95.85%)", "type": "functional"}, "[30]": {"system": "HeLa", "experiment": "Induction of mitochondrial transmembrane potential loss in human HeLa cells assessed as JC1 dye monomers level at 100 nM incubated for 24 hrs by JC1 staining based flow cytometry (reference value: 4.12%)", "type": "functional"}, "[31]": {"system": "HeLa", "experiment": "Induction of mitochondrial transmembrane potential loss in human HeLa cells assessed as JC1 dye aggregates level at 500 nM incubated for 24 hrs by JC1 staining based flow cytometry (reference value: 95.85%)", "type": "functional"}, "[32]": {"system": "HeLa", "experiment": "Induction of mitochondrial transmembrane potential loss in human HeLa cells assessed as JC1 dye monomers level at 500 nM incubated for 24 hrs by JC1 staining based flow cytometry (reference value: 4.12%)", "type": "functional"}, "[33]": {"system": "HeLa", "experiment": "Induction of mitochondrial transmembrane potential loss in human HeLa cells at 50 nM incubated for 24 hrs by JC1 staining based fluorescence microscopy", "type": "functional, cell-based"}, "[34]": {"system": "HeLa", "experiment": "Induction of mitochondrial transmembrane potential loss in human HeLa cells at 100 nM incubated for 24 hrs by JC1 staining based fluorescence microscopy", "type": "functional, cell-based"}, "[35]": {"system": "HeLa", "experiment": "Induction of mitochondrial transmembrane potential loss in human HeLa cells at 500 nM incubated for 24 hrs by JC1 staining based fluorescence microscopy", "type": "functional, cell-based"}}, "note": "pIC50: −log10 of the molar value. Calls of active or inactive are those of the source. The rule behind the calls is not given here.", "data": [{"smiles": "COc1ccc(N(C)c2cc(C)nc(C)n2)cc1O", "values": [{"measurement": "pIC50", "setting": "[1]", "result": 6.95}, {"measurement": "pIC50", "setting": "[2]", "result": 5.96}, {"measurement": "pIC50", "setting": "[3]", "result": 5.24}, {"measurement": "Activity", "setting": "[4]", "result": 28.3, "unit": "%"}, {"measurement": "Activity", "setting": "[5]", "result": 39.6, "unit": "%"}, {"measurement": "Activity", "setting": "[6]", "result": 55.6, "unit": "%"}, {"measurement": "Activity", "setting": "[7]", "result": 38.7, "unit": "%"}, {"measurement": "Activity", "setting": "[8]", "result": "Active"}, {"measurement": "Activity", "setting": "[9]", "result": "Active"}, {"measurement": "Activity", "setting": "[10]", "result": "Active"}, {"measurement": "inhibition", "setting": "[11]", "result": "Active"}, {"measurement": "inhibition", "setting": "[12]", "result": "Active"}, {"measurement": "Activity", "setting": "[13]", "result": 10.44, "unit": "%"}, {"measurement": "Activity", "setting": "[14]", "result": 0, "unit": "%"}, {"measurement": "Activity", "setting": "[15]", "result": 23.16, "unit": "%"}, {"measurement": "Activity", "setting": "[16]", "result": 0.07, "unit": "%"}, {"measurement": "Activity", "setting": "[17]", "result": 29.81, "unit": "%"}, {"measurement": "Activity", "setting": "[18]", "result": 0.09, "unit": "%"}, {"measurement": "Activity", "setting": "[19]", "result": 0.29, "unit": "%"}, {"measurement": "Activity", "setting": "[20]", "result": 82.18, "unit": "%"}, {"measurement": "Activity", "setting": "[21]", "result": 7.44, "unit": "%"}, {"measurement": "Activity", "setting": "[22]", "result": 0.6, "unit": "%"}, {"measurement": "Activity", "setting": "[23]", "result": 65.2, "unit": "%"}, {"measurement": "Activity", "setting": "[24]", "result": 21.09, "unit": "%"}, {"measurement": "Activity", "setting": "[25]", "result": 11.63, "unit": "%"}, {"measurement": "Activity", "setting": "[26]", "result": 2.08, "unit": "%"}, {"measurement": "Activity", "setting": "[27]", "result": 18.61, "unit": "%"}, {"measurement": "Activity", "setting": "[28]", "result": 11.47, "unit": "%"}, {"measurement": "Activity", "setting": "[29]", "result": 70.71, "unit": "%"}, {"measurement": "Activity", "setting": "[30]", "result": 28.64, "unit": "%"}, {"measurement": "Activity", "setting": "[31]", "result": 51.28, "unit": "%"}, {"measurement": "Activity", "setting": "[32]", "result": 48.26, "unit": "%"}, {"measurement": "Activity", "setting": "[33]", "result": "Active"}, {"measurement": "Activity", "setting": "[34]", "result": "Active"}, {"measurement": "Activity", "setting": "[35]", "result": "Active"}]}]}
